The text below walks through data of patent EP4810052A2, “HCRHR2 SELECTIVE POLYPEPTIDES” (Gubra A/S, priority 2023, dated 2026).

By EC50 is commonly meant the midpoint of the concentration-response curve.

One data set has as its target T1, hCRHR2 (Homo sapiens, UniProt Q13324).
T1 sequence (Q13324 1-411): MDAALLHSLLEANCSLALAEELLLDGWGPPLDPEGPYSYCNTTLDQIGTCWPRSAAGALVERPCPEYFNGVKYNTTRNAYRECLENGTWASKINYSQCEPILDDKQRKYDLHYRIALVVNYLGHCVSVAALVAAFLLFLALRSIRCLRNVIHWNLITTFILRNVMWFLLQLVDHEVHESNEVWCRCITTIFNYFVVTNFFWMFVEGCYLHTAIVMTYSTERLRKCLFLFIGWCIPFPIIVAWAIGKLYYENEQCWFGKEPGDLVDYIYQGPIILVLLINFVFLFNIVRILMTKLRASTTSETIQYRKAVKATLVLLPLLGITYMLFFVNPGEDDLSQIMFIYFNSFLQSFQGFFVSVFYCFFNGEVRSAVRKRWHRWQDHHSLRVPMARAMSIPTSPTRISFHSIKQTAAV
The data set can be described thus: HTRF cAMP assay, determination of hCRHR2 potency (peptide libraries 5 conc., purified peptides 11 conc.). It counts as cell-based. The following applies: for EC50: read-out: hCRHR2 EC50. In outline: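 EC50 derived by variable-slope sigmoid regression of FRET-based cAMP data; cellular cAMP displaced d2-labelled tracer from cryptate anti-cAMP antibody. Stable human CRHR2 CHO-K1 suspension cells, revived from frozen stocks just before the run.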

For a further data set, the target named is T2, hCRHR1 (Homo sapiens, UniProt P34998).
T2 sequence (P34998 24-415): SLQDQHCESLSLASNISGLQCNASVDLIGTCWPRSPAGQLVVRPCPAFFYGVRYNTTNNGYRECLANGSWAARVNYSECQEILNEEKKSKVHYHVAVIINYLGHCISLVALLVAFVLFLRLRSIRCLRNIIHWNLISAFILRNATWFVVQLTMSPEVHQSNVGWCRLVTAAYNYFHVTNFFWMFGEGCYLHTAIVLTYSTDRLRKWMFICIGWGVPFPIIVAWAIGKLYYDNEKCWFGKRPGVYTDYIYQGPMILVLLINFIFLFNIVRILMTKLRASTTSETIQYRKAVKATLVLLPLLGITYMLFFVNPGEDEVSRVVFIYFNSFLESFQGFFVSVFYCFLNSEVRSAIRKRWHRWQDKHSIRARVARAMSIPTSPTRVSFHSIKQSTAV
The data set can be described thus: HTRF cAMP assay, determination of hCRHR1 potency (peptide libraries 5 conc., purified peptides 11 conc.). It counts as cell-based. The following applies: read-out: hCRHR1 EC50. In outline: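 Cellular cAMP was read by time-resolved FRET between d2-labelled cAMP and cryptate anti-cAMP antibody. The cells were freshly thawed suspension CHO-K1 cells stably expressing human CRHR1.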
For orientation: In TR-FRET formats the signal depends on donor and acceptor labels being close together.

Data set [1] in a line: Thioflavin T fibril formation assay of purified peptides. Format: physicochemical. Also noted: key: Amyloid fibril formation detected by an increase in ThT fluorescence was denoted with "Yes"; samples without increasing ThT fluorescence hence not forming amyloid fibrils were denoted "No". In outline:
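Fibril formation read as rising ThT emission at 480 nm (450 nm excitation), 4 µM ThT, over 96 h at 40°C with alternating 5-min rest and 700 rpm shaking cycles, in triplicate. Samples were 200 µM compound in 50 mM phosphate at various pH values, or co-formulated at 200 µM in semaglutide product at pH 7.4.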

The nature of data set [2]: Chemical stability of purified peptides (RP-UHPLC main peak purity loss). It counts as physicochemical. Put shortly: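 Purity loss is the drop in RP-UHPLC main-peak area fraction (215 nm detection, C8 column at 50 °C) from time zero to day 14 and/or day 28 at 40 °C. Samples held roughly 1.0 mg/ml peptide in 50 mM phosphate, pH 7.5, with other pH targets also tested.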

Another data set is described as follows: PK in rats. Also noted: T½ / MRT: unit not given here. It counts as in vivo. The settings on record: Rat. How it is done: Lean male Sprague Dawley rats (RJHan:SD) were obtained from JanVier (JanVier Labs, France) at 7 weeks of age. The animals were pair housed until randomization under a 12/12 h dark-light cycle, light off at 3 PM. Room temperature was controlled to 22°C ± 1°C, with 60 % ± 20% humidity.
Animals had ad libitum access to regular rodent chow (Altromin 1324, Brogaarden, Denmark) and tap water.
After 2 weeks of acclimatization, the animals were single housed and randomized into treatment groups (n = 3 per group) based on body weight on study day -3. On study day 1, animals were dosed 50 nmol/kg IV and SC in combination of two peptides. Plasma samples were collected for PK analysis at times 0.17, 1, 3, 6, 24, 30, 48, 72 and 96 hours post dosing. Plasma samples were analyzed using LC-MSMS and PK parameters were estimated by Non-Compartmental Analysis (NCA).

For data set [3] the following is noted: pH 7.5.
Setting [4] is: purified peptides, CHO-K1 cells stably expressing hCRHR2, cAMP HTRF.
[5] abbreviates: purified peptides, CHO-K1 cells stably expressing hCRHR1, cAMP HTRF.
Where [6] appears, read: pH 7.5, 40°C, 14 days, first value of cell.

Structures are written as SMILES. Where two headings read alike, the source gives them in different places. Starred links: 1 amine or outer side, 2 acyl side, 3 side chain; linkers in the order of their positions; H or OH if unused. Non-standard residues stand in square brackets, D forms with d. Residues, ends and D or L forms follow the SMILES beside them. Groups on a side chain read outwards from the residue. *: point of attachment. C20 diacid = O=C(O)CCCCCCCCCCCCCCCCCCC(=O)*; γGlu = O=C(O)[C@H](CCC(=O)[*:2])N[*:1]; NMeI = CC[C@H](C)[C@H](NC)C(=O)O; Nle = CCCC[C@H](N)C(=O)O; AEEA = NCCOCCOCC(=O)O; Aib = CC(C)(N)C(=O)O

In the case of `CC[C@H](C)[C@H](N)C(=O)N[C@H](C(=O)N[C@@H](CC(C)C)C(=O)N[C@@H](CO)C(=O)N[C@@H](CC(C)C)C(=O)N[C@@H](CC(=O)O)C(=O)N[C@H](C(=O)N1CCC[C@H]1C(=O)N[C@H](C(=O)NCC(=O)N[C@@H](CC(C)C)C(=O)N[C@@H](CC(C)C)C(=O)N[C@@H](CCC(N)=O)C(=O)N[C@H](C(=O)N[C@@H](CC(C)C)C(=O)N[C@@H](CC(C)C)C(=O)N[C@@H](CCC(=O)O)C(=O)N[C@@H](CCC(N)=O)C(=O)N[C@@H](C)C(=O)N[C@@H](CCCNC(=N)N)C(=O)N[C@@H](C)C(=O)N[C@@H](CCCNC(=N)N)C(=O)N[C@@H](C)C(=O)N[C@@H](C)C(=O)N[C@@H](CCCNC(=N)N)C(=O)N[C@@H](CCC(=O)O)C(=O)N[C@@H](CCC(N)=O)C(=O)N[C@@H](C)C(=O)N[C@@H](CCCCNC(=O)COCCOCCNC(=O)COCCOCCNC(=O)CC[C@H](NC(=O)CC[C@H](NC(=O)CCCCCCCCCCCCCCCCCCC(=O)O)C(=O)O)C(=O)O)C(=O)N[C@H](C(=O)N[C@@H](CC(N)=O)C(=O)N[C@H](C(=O)N[C@@H](CCC(=O)O)C(=O)N[C@H](C(=O)N[C@@H](CC(C)C)C(=O)N[C@@H](C)C(=O)N[C@@H](CCC(=O)O)C(=O)N[C@H](C(N)=O)C(C)C)[C@@H](C)CC)C(C)C)[C@@H](C)O)[C@@H](C)CC)[C@@H](C)CC)C(C)C)C(C)C` [SEQ ID NO: 14] (H-IVLSLDVPIGLLQILLEQARARAAREQAK([AEEA-AEEA-γGlu-γGlu-C20 diacid])TNVEILAEV-NH2), at hCRHR2 (hCRHR1-EC50/hCRHR2-EC50), the “Selectivity ratio (hCRHR1/ hCRHR2)” value is listed as greater than 1000. In addition, the EC50 at hCRHR2 (setting [4]) worked out at 5 nM. The EC50 at hCRHR1 (setting [5]) was greater than 5000 nM. Also, in data set [1] (pH 7.5, ThT assay), the “Fibrillation (pH 7.5)” value is on record as “No”. The “Chemical stability at pH 7.5 after 14 days at 40°C (% degradation)” value in data set [2] (setting [6]) is listed as -0.3%. For the same compound, in data set [2] (pH 7.5, 40°C, 28 days, second value of cell), the “Chemical stability at pH 7.5 after 28 days at 40°C (% degradation)” value was -1.2%. Also, in the data set “PK in rats”, the MRT was found to be 6.1 and the T½ is listed as 5.1. The “Solubility pH 7.5, target conc. =10 mg/mL (measured mg/mL)” value in data set [3] is 9.2 mg/mL.

With `CCCC[C@H](NC(=O)[C@@H](NC(=O)[C@H](CCC(=O)O)NC(=O)C(C)(C)NC(=O)[C@H](CC(N)=O)NC(=O)[C@@H](NC(=O)[C@H](CCCCNC(=O)COCCOCCNC(=O)COCCOCCNC(=O)CC[C@H](NC(=O)CC[C@H](NC(=O)CCCCCCCCCCCCCCCCCCC(=O)O)C(=O)O)C(=O)O)NC(=O)[C@H](C)NC(=O)[C@H](CCC(N)=O)NC(=O)[C@H](CCC(=O)O)NC(=O)[C@H](CCCNC(=N)N)NC(=O)[C@H](C)NC(=O)[C@H](C)NC(=O)[C@H](CCCNC(=N)N)NC(=O)[C@H](C)NC(=O)[C@H](CCCNC(=N)N)NC(=O)[C@H](C)NC(=O)[C@H](CCC(N)=O)NC(=O)[C@H](CCC(=O)O)NC(=O)[C@H](CC(C)C)NC(=O)[C@H](CC(C)C)NC(=O)[C@@H](NC(=O)[C@H](CCC(N)=O)NC(=O)[C@H](CC(C)C)NC(=O)[C@H](CC(C)C)NC(=O)CNC(=O)[C@@H](NC(=O)[C@@H]1CCCN1C(=O)[C@@H](NC(=O)[C@H](CC(=O)O)NC(=O)[C@H](CC(C)C)NC(=O)[C@H](CO)NC(=O)[C@H](CC(C)C)NC(=O)[C@@H](NC(=O)[C@@H](N)[C@@H](C)CC)C(C)C)C(C)C)[C@@H](C)CC)[C@@H](C)CC)[C@@H](C)O)[C@@H](C)CC)C(=O)N[C@@H](C)C(=O)N[C@@H](CCC(=O)O)C(=O)N[C@H](C(N)=O)[C@@H](C)CC` [compound 100] (H-IVLSLDVPIGLLQILLEQARARAAREQAK([AEEA-AEEA-γGlu-γGlu-C20 diacid])TN[Aib]EI[Nle]AEI-NH2), the “Selectivity ratio (hCRHR1/ hCRHR2)” value on hCRHR2 (Table 5) was greater than 6494. The EC50 on hCRHR2 (Table 5, purified peptides) was 0.77 nM; at hCRHR1 (Table 5, purified peptides) it was greater than 5000 nM. Further, the “Fibrillation (pH 7.5)” value in data set [1] (pH 7.5) is listed as “No”. Moreover, the “Chemical stability at pH 7.5 after 14 days at 40°C (% degradation)” value in data set [2] (pH 7.5, 14 days, 40°C) is given as -0.43%. Besides, in data set [2] (pH 7.5, 28 days, 40°C), the “Chemical stability at pH 7.5 after 28 days at 40°C (% degradation)” value is recorded as -0.8%. The “Solubility pH 7.5, target conc. =10 mg/mL (measured mg/mL)” value in data set [3] was 11 mg/mL.

For `CC[C@H](C)[C@H](NC)C(=O)N[C@H](C(=O)N[C@@H](CC(C)C)C(=O)N[C@@H](CO)C(=O)N[C@@H](CC(C)C)C(=O)N[C@@H](CC(=O)O)C(=O)N[C@H](C(=O)N1CCC[C@H]1C(=O)N[C@H](C(=O)NCC(=O)N[C@@H](CC(C)C)C(=O)N[C@@H](CC(C)C)C(=O)N[C@@H](CCC(N)=O)C(=O)N[C@H](C(=O)N[C@@H](CC(C)C)C(=O)N[C@@H](CC(C)C)C(=O)N[C@@H](CCC(=O)O)C(=O)N[C@@H](CCC(N)=O)C(=O)N[C@@H](C)C(=O)N[C@@H](CCCNC(=N)N)C(=O)N[C@@H](C)C(=O)N[C@@H](CCCNC(=N)N)C(=O)N[C@@H](C)C(=O)N[C@@H](C)C(=O)N[C@@H](CCCNC(=N)N)C(=O)N[C@@H](CCC(=O)O)C(=O)N[C@@H](CCC(N)=O)C(=O)N[C@@H](C)C(=O)N[C@@H](CCCCNC(=O)COCCOCCNC(=O)COCCOCCNC(=O)CC[C@H](NC(=O)CC[C@H](NC(=O)CCCCCCCCCCCCCCCCCCC(=O)O)C(=O)O)C(=O)O)C(=O)N[C@@H](CCC(=O)O)C(=O)N[C@@H](CC(N)=O)C(=O)N[C@@H](C)C(=O)N[C@@H](CCC(=O)O)C(=O)N[C@H](C(=O)N[C@@H](CC(C)C)C(=O)N[C@@H](C)C(=O)N[C@@H](CCC(=O)O)C(=O)N[C@H](C(N)=O)C(C)C)[C@@H](C)CC)[C@@H](C)CC)[C@@H](C)CC)C(C)C)C(C)C` [SEQ ID NO: 18] (H-[NMeI]VLSLDVPIGLLQILLEQARARAAREQAK([AEEA-AEEA-γGlu-γGlu-C20 diacid])ENAEILAEV-NH2), the “Selectivity ratio (hCRHR1/ hCRHR2)” value at hCRHR2 (hCRHR1-EC50/hCRHR2-EC50) is recorded as greater than 3571. Also, the figures for the EC50 at hCRHR2 (setting [4]) and at hCRHR1 (setting [5]) were 1.4 nM and greater than 5000 nM, respectively. Also, the “Fibrillation (pH 7.5)” value in data set [1] (pH 7.5, ThT assay) is recorded as “No”. Moreover, the “Chemical stability at pH 7.5 after 14 days at 40°C (% degradation)” value in data set [2] (setting [6]) is on record as -2.2 / ND %. In data set [3], the “Solubility pH 7.5, target conc. =10 mg/mL (measured mg/mL)” value turned out to be 11 mg/mL.
